This note sets out measurements from patent US7371766B2, “Curcumin analogs with anti-tumor and anti-angiogenic properties” (Emory University, priority 1999, dated 2008).

Where two headings read alike, the source gives them in different places.

The subject of experiment [1] is MOLT-4. The note with it: read-out: Median Growth Inhibitory Concentration (GI50); MOLT-4, Leukemia; 48 hours.
For experiment [2], the system named is SF-539. The note with it: read-out: Median Growth Inhibitory Concentration (GI50); SF-539, CNS Cancer; 48 hours.
For experiment [3], the system named is CAKI-1. Particulars: read-out: Median Growth Inhibitory Concentration (GI50); CAKI-1, Renal Cancer; 48 hours.
Experiment [4] relates to HOP-62. The note with it: read-out: Median Growth Inhibitory Concentration (GI50); HOP-62, Non-Small Cell Lung Cancer; 48 hours.
The test system of experiment [5] is SK-MEL-5. The note with it: read-out: Median Growth Inhibitory Concentration (GI50); SK-MEL-5, Melanoma; 48 hours.
Experiment [6] concerns A549. The note with it: read-out: Median Growth Inhibitory Concentration (GI50); A549, Non-Small Cell Lung Cancer; 48 hours.
For experiment [7], the system named is EKVX. Particulars: read-out: Median Growth Inhibitory Concentration (GI50), Non-Small Cell Lung Cancer, 48 hours.
In experiment [8] the test system is HCT-116. The note with it: read-out: Median Growth Inhibitory Concentration (GI50); HCT-116, Colon Cancer; 48 hours.
In experiment [9] the test system is SF-295. Particulars: read-out: Median Growth Inhibitory Concentration (GI50); SF-295, CNS Cancer; 48 hours.
Experiment [10] concerns DU-145. Particulars: read-out: Median Growth Inhibitory Concentration (GI50); DU-145, Prostate Cancer; 48 hours.
Experiment [11] deals with RXF 393. Particulars: read-out: Median Growth Inhibitory Concentration (GI50); RXF 393, Renal Cancer; 48 hours.
The test system of experiment [12] is COLO 205. Particulars: read-out: Median Growth Inhibitory Concentration (GI50); COLO 205, Colon Cancer; 48 hours.
The subject of experiment [13] is SN12C. The note with it: read-out: Median Growth Inhibitory Concentration (GI50), Renal Cancer, 48 hours.
Experiment [14] relates to HCC-2998. The note with it: read-out: Median Growth Inhibitory Concentration (GI50); HCC-2998, Colon Cancer; 48 hours.
In experiment [15] the test system is NCI-H460. The note with it: read-out: Median Growth Inhibitory Concentration (GI50); NCI-H460, Non-Small Cell Lung Cancer; 48 hours.
In experiment [16] the test system is HL-60 (TB). Particulars: read-out: Median Growth Inhibitory Concentration (GI50), Leukemia, 48 hours.
The test system of experiment [17] is BT-549. The note with it: read-out: Median Growth Inhibitory Concentration (GI50); BT-549, Breast Cancer; 48 hours.
Experiment [18] has as its system OVCAR-4. Particulars: read-out: Median Growth Inhibitory Concentration (GI50); OVCAR-4, Ovarian Cancer; 48 hours.
In experiment [19] the test system is SK-MEL-2. Particulars: read-out: Median Growth Inhibitory Concentration (GI50); SK-MEL-2, Melanoma; 48 hours.
Experiment [20] concerns SW-620. Particulars: read-out: Median Growth Inhibitory Concentration (GI50); SW-620, Colon Cancer; 48 hours.
Experiment [21] has as its system OVCAR-8. Particulars: read-out: Median Growth Inhibitory Concentration (GI50); OVCAR-8, Ovarian Cancer; 48 hours.
Experiment [22] deals with MALME-3M. The note with it: read-out: Median Growth Inhibitory Concentration (GI50), Melanoma, 48 hours.
Experiment [23] deals with NCI-H226. The note with it: read-out: Median Growth Inhibitory Concentration (GI50); NCI-H226, Non-Small Cell Lung Cancer; 48 hours.
The test system of experiment [24] is NCI/ADR-RES. The note with it: read-out: Median Growth Inhibitory Concentration (GI50), Breast Cancer, 48 hours.
The subject of experiment [25] is LOX IMVI. Particulars: read-out: Median Growth Inhibitory Concentration (GI50), Melanoma, 48 hours.
Experiment [26] concerns IGROV1. The note with it: read-out: Median Growth Inhibitory Concentration (GI50); IGROV1, Ovarian Cancer; 48 hours.
Experiment [27] relates to PC-3. Particulars: read-out: Median Growth Inhibitory Concentration (GI50); PC-3, Prostate Cancer; 48 hours.
The test system of experiment [28] is RPMI-8226. The experiment can be described thus: cells. Particulars: Homo sapiens, RPMI-8226, 48 h; for GI50: read-out: Median Growth Inhibitory Concentration (GI50); for CC50: read-out: Median Lethal Concentration (LC50).
For experiment [29], the system named is PC-3. The experiment can be described thus: cells. The note with it: Homo sapiens, PC-3, 48 h; for GI50: read-out: Median Growth Inhibitory Concentration (GI50); for CC50: read-out: Median Lethal Concentration (LC50).
Experiment [30] deals with K-562. The experiment can be described thus: cells. The note with it: Homo sapiens, K562, 48 h; for GI50: read-out: Median Growth Inhibitory Concentration (GI50); for CC50: read-out: Median Lethal Concentration (LC50).
For experiment [31], the system named is SK-MEL-2. The experiment can be described thus: cells. Particulars: Homo sapiens, SK-MEL-2, 48 h; for GI50: read-out: Median Growth Inhibitory Concentration (GI50); for CC50: read-out: Median Lethal Concentration (LC50).

In the case of “3,5-Bis(2-hydroxybenzylidene)-sulfone [EF11]”, the GI50 in experiment [1] was determined as 19.7 µM; in experiment [2], 39.9 µM; in [3], 29.2 µM; in experiment [4] it was 83.3 µM; in [5], 23.2 µM; in experiment [6], 38.7 µM. Further, the GI50 in experiment [7] is 30.6 µM; in experiment [8], 36.8 µM; in experiment [9], 53.8 µM; in [10] it was 29.9 µM; in experiment [11], 39 µM; in experiment [12], 39.6 µM. Also, the GI50 amounted to 34.2 µM in [13]; 20.5 µM in experiment [14]; 30.7 µM in [15]; 21.3 µM in [16]; 32.9 µM in experiment [17]; 28.7 µM in experiment [18]. The GI50 in experiment [19] is 24 µM; in [20], 32.5 µM; in [21], 47.1 µM; in [22], 40.7 µM; in experiment [23], above 100 µM; in experiment [24], 86.1 µM. Also, the GI50 in experiment [25] is 40.3 µM; in experiment [26] it was 35.9 µM; in [27] it was 34.9 µM.
For `OC(CCc1ccc(F)cc1F)CCc1ccc(F)cc1F` [EF19, 1,5-Bis(2,4-difluorophenyl)-pentan-3-ol], the GI50 in experiment [28] came out at 21700 nM; in [29], 17.5 µM; in experiment [30], 19 µM; in experiment [31] it was 18.4 µM. In addition, the CC50 in experiment [28] is above 100 µM; in experiment [29], 56.7 µM; in experiment [30], 90.1 µM; in experiment [31], 57 µM.
Consider `O=C(C=Cc1ccc(F)cc1F)C=Cc1ccc(F)cc1F` [EF9, 1,5-Bis(2,4-difluorophenyl)penta-1,4-dien-3-one], for which the GI50 was determined as 2400 nM in experiment [28], 4.8 µM in experiment [29], 3.5 µM in experiment [30] and 14.5 µM in experiment [31]. Further, the CC50 was 95.6 µM in [28], 41 µM in [29], above 100 µM in experiment [30] and 58.9 µM in [31].
`CC1(/C=C/c2ccccc2O)C=Cc2ccccc2O1` (stereo not drawn) [EF7]: the GI50 came out at 14800 nM in [28], 17.2 µM in experiment [29], 14.9 µM in [30] and 16.8 µM in experiment [31]. The CC50 in experiment [28] was 92.7 µM; in experiment [29], 55.6 µM; in [30] it was 70.7 µM; in experiment [31], 57 µM.
With `O=C1C(=Cc2ccccc2O)CCCC1=Cc1ccccc1O` [EF4, 2,6Bis(2-hydroxybenzylidene)cyclohexanone], the GI50 in [28] is 600 nM; in experiment [29], 2.1 µM; in experiment [30], 2.5 µM; in experiment [31] it was 2.4 µM. For the same compound, the results for the CC50 in experiment [29], in experiment [30] and in experiment [31] were 28.6 µM, 91.4 µM and 25.3 µM, respectively.
As for `CC(=O)O.O=C1C(=Cc2ccccc2F)CNCC1=Cc1ccccc1F` [EF24, 3,5-Bis-(2-fluorobenzylidene)-piperidin-4-one-acetate], the GI50 in [28] was 200 nM; in experiment [29] it was 0.3 µM; in [30], 0.3 µM; in experiment [31], 2.6 µM. Also, the CC50 turned out to be 7.2 µM in experiment [29], 75.4 µM in [30] and 19.5 µM in [31].
As for `COc1cc(/C=C/C(=O)CC(=O)/C=C/c2ccc(O)c(OC)c2)ccc1O` [Curcumin], the GI50 in [28] stood at 2000 nM; in [29], 7.9 µM; in experiment [30] it was 3.2 µM; in [31], 15.8 µM. The CC50 in experiment [29] is 63.1 µM; in experiment [30] it was below 100 µM; in experiment [31], 79.4 µM.
